The record followed here is patent US6573377B1, “Pyrazole derivatives and salts thereof” (Daiichi Pharmaceuticals Co., Ltd., priority 1998, dated 2003).

SMILES strings stand for the structures. ≈ marks a conversion by molar mass, not a printed value. Counter-ions that a name gives are not always drawn. Marks after values point to notes of the source that are not given here.

The subject of series [1] is human pulmonary carcinoma strain PC-12. Briefly: Growth inhibition of PC-12 cells, MTT assay (Test Example 1). The class given is cell-based. Particulars: cultured 3 days with sample, absorbance 540 nm; for GI50: Homo sapiens, PC-12, 72 h. The procedure:
A human pulmonary carcinoma strain PC-12 which had been subcultured using RPMI 1640 containing 10% fetal calf serum, 2 mM of L-glutamine and 100 μg/ml of kanamycin sulfate was inoculated into a 96 well microplate at an inoculum size of 1.0×1.0^3 cells/150 μl/well, and 50 μl/well of a sample was added 24 hours thereafter. The cells were then cultured for 3 days, and a 5 mg/ml solution of MTT (3-(4,5-dimethylthiazol-2-yl)-2,5-diphenyl-2H-tetrazolium bromide) was dispensed in 20 μl/well portions. Four hours thereafter, the culture medium was discarded, dimethyl sulfoxide was dispensed in 150 μl/well portions and the absorbance was measured at 540 nm. The antitumor effect was shown by GI50 value (ng/ml) as a drug concentration which reduced cell growth of the drug-added group to 50% of the control group.

A further series concerns mice (Balb/c). Put plainly: Coordination inhibition test, RotaRod (Test Example 2). The format is in vivo. Particulars: oral; for T/C (coordination inhibition positive mice/tested mice) After 1 hour: 1 hour after administration; for T/C (coordination inhibition positive mice/tested mice) After 4 hours: 4 hours after administration. The procedure: Rotation speed of the rotary rod (3 cm in diameter) of RotaRod apparatus (mfd. by Natsume Seisaku-sho) was set to 10 rpm, and mice (Balb/c) which stood on the rod for 60 seconds or more were selected. After 1, 4 or 24 hours of the oral administration of each test sample, these mice were put on the rod, and the mice which dropped within 60 seconds were regarded as coordination inhibition action positive.

Series [2] concerns Mouse fibrosarcoma Meth A. Briefly: Antitumor effect (IR) against subcutaneously transplanted Meth A. The format is in vivo, mice. Particulars: judged on the 17th day.

Consider `Cc1c(/C=C/CN2CCN3c4cc(F)ccc4OCC3C2)cnn1-c1nccc(N)n1` (racemic) [Example 3, (+/−)-3-[3-[1-(4-Amino-2-pyrimidinyl)-5-methyl-4-pyrazolyl]-2-trans-propen-1-yl]-9-fluoro-2,3,4,4a,5,6-hexahydro-1H-pyrazino[2,1-c]-1,4-benzoxazine hydrochloride], for which the GI50 (in general, the concentration at which growth is held to half of that of the control) in series [1] came out at 20.9 ng/mL.
On the same count and under the same terms, the value for `Cc1c(/C=C/CN2CCN3c4ccccc4CC3C2)cnn1-c1nccc(N)n1` (racemic) [Example 4, (+/−)-2-[3-[1-(4-Amino-2-pyrimidinyl)-5-methyl-4-pyrazolyl]-2-trans-propen-1-yl]-1,2,3,4,10,10a-hexahydropyrazino[1,2-a]indole hydrochloride] was 12.1 ng/mL.
For `Cc1c(/C=C/CN2CCN3c4cc(F)ccc4CCC3C2)cnn1-c1nccc(N)n1` (single isomer, unassigned; isomer a) [Example 1, 3-[3-[1-(4-Amino-2-pyrimidinyl)-5-methyl-4-pyrazolyl]-2-trans-propen-1-yl]-9-fluoro-2,3,4,4a,5,6-hexahydro-1H-pyrazino[1,2-a]quinoline hydrochloride (isomer A)], the “GI50 Value” in series [1] (listed as Compound of Example 1) came to 36.5 ng/mL.
Consider `Cc1c(/C=C/CN2CCN(c3cc(F)cc(F)c3)CC2)cnn1-c1cc(N2CC(N)C2)nc(N)n1.Cl` [Example 19, 1-[1-[2-Amino-6-(3-amino-1-azetidinyl)-4-pyrimidinyl]-5-methyl-4-pyrazolyl]-3-[4-(3,5-difluorophenyl)-1-piperazinyl]-1-trans-propene hydrochloride], for which, in series [1], the GI50 turned out to be 2.35 ng/mL.
For `O=c1[nH]cc(F)c(=O)[nH]1` [Example 5-FU, 5-FU, reference compound], the “GI50 Value” in series [1] was 35.5 ng/mL (≈ 0.273 µM).
Take `Cc1c(/C=C/CN2CCN(c3cc(F)cc(F)c3)CC2)cnn1-c1cc(N2CC(O)C2)nc(N)n1.Cl` [Example 13, 1-[1-[2-Amino-6-(3-hydroxy-1-azetidinyl)-4-pyrimidinyl]-5-methyl-4-pyrazolyl]-3-[4-(3,5-difluorophenyl)-1-piperazinyl]-1-trans-propene hydrochloride]: in series [1], it took 0.601 ng/mL to inhibit growth by half (GI50). The “T/C (coordination inhibition positive mice/tested mice) After 1 hour” value is 0/6 with mice (Balb/c) (dose 5 mg), 0/6 in the series with mice (Balb/c) (dose 10 mg) and 1/6 in the series on mice (Balb/c) (dose 12 mg). In addition, the “T/C (coordination inhibition positive mice/tested mice) After 4 hours” value in the series with mice (Balb/c) (dose 5 mg) was 0/6; in the series on mice (Balb/c) (dose 10 mg), 0/6; with mice (Balb/c) (dose 12 mg), 2/6. The “antitumor effect (IR)” value in series [2] (oral 5 mg × 4 times (d7-10)) is 5 mg × 4 times (IR 92%)*.
Compound `Cc1c(/C=C/CN2CCN3c4cc(F)cc(F)c4CCC3C2)cnn1-c1cc(NCCO)nc(N)n1` (stereo not drawn) [Example 27, 3-[3-[1-[2-Amino-6-(2-hydroxyethyl)amino-4-pyrimidinyl]-5-methyl-4-pyrazolyl]-2-trans-propen-1-yl]-7,9-difluoro-2,3,4,4a,5,6-hexahydro-1H-pyrazino[1,2-a]quinoline hydrochloride] registered a GI50 in series [1] of 9.3 ng/mL.
Take `Cc1c(/C=C/CN2CCN3c4cc(F)cc(F)c4CCC3C2)cnn1-c1cc(N(C)CCO)nc(N)n1.Cl` (single isomer, unassigned; isomer b) [Example 28, 3-[3-[1-[2-Amino-6-[N-methyl-N-(2-hydroxyethyl)amino-4-pyrimidinyl]-5-methyl-4-pyrazolyl]-2-trans-propen-1-yl]-7,9-difluoro-2,3,4,4a,5,6-hexahydro-1H-pyrazino[1,2-a]quinoline hydrochloride (isomer B)]: the GI50 in series [1] came out at 0.725 ng/mL.
Same read-out and setting: for `Cc1c(/C=C/CN2CCN(c3cc(F)cc(F)c3)CC2)cnn1-c1cc(N(CCO)CCO)nc(N)n1.Cl` [Example 12, 1-[1-[2-Amino-6-di(2-hydroxyethyl)amino-4-pyrimidinyl]-5-methyl-4-pyrazolyl]-3-(4-(3,5-difluorophenyl)-1-piperazinyl]-1-trans-propene hydrochloride] the value was 1.6 ng/mL; for `Cc1c(/C=C/CN2CCN(c3cc(F)cc(F)c3)CC2)cnn1-c1cc(NCCN)nc(N)n1.Cl` [Example 15, 1-[1-[2-Amino-6-(2-aminoethyl)amino-4-pyrimidinyl]-5-methyl-4-pyrazolyl]-3-[4-(3,5-difluorophenyl)-1-piperazinyl]-1-trans-propene hydrochloride], 26.6 ng/mL.
On the same count and under the same terms, for `Cc1c(/C=C/CN2CCN3c4cc(F)cc(F)c4CCC3C2)cnn1-c1cc(N(CCO)CCO)nc(N)n1` (single isomer, unassigned; isomer b) [Example 29, 3-[3-[1-[2-Amino-6-di(2-hydroxyethyl)amino-4-pyrimidinyl]-5-methyl-4-pyrazolyl]-2-trans-propen-1-yl]-7,9-difluoro-2,3,4,4a,5,6-hexahydro-1H-pyrazino[1,2-a]quinoline hydrochloride (isomer B)] the value was 1.54 ng/mL.
Take `Cc1c(/C=C/CN2CCN3c4cc(F)ccc4CCC3C2)cnn1-c1nccc(N)n1` (single isomer, unassigned; isomer b) [Example 2, 3-[3-[1-(4-amino-2-pyrimidinyl)-5-methyl-4-pyrazolyl]-2-trans-propen-1-yl]-9-fluoro-2,3,4,4a,5,6-hexahydro-1H-pyrazino[1,2-a]quinoline hydrochloride (isomer B)]: the “GI50 Value” in series [1] (listed as Compound of Example 2) was 12.1 ng/mL.
With `Cc1c(/C=C/CN2CCN(c3cc(F)cc(F)c3)CC2)cnn1-c1nc(N)cc(N2CCC2)n1` [Example 26, 1-[[4-Amino-6-(1-azetidinyl)-2-pyrimidinyl]-5-methyl-4-pyrazolyl]-3-[4-(3,5-difluorophenyl)-1-piperazinyl]-1-trans-propene hydrochloride], growth in series [1] was halved (GI50) at 6.29 ng/mL.
Regarding `Cc1c(/C=C/CN2CCN(c3cc(F)cc(F)c3)CC2)cnn1-c1cc(N2CC(C)(O)C2)nc(N)n1.Cl` [Example 54, 1-[1-[2-Amino-6-(3-hydroxy-3-methyl-1-azetidinyl)-4-pyrimidinyl]-5-methyl-4-pyrazolyl]-3-[4-(3,5-difluorophenyl)-1-piperazinyl]-1-trans-propene hydrochloride], in series [1], the GI50 worked out at 11.3 ng/mL. Besides, in the series with mice (Balb/c) (dose 10 mg), the “T/C (coordination inhibition positive mice/tested mice) After 1 hour” value was 0/6 and the “T/C (coordination inhibition positive mice/tested mice) After 4 hours” value is given as 0/6. In the series on mice (Balb/c) (dose 30 mg), the “T/C (coordination inhibition positive mice/tested mice) After 1 hour” value is 0/6 and the “T/C (coordination inhibition positive mice/tested mice) After 4 hours” value was 0/6. The “antitumor effect (IR)” value in series [2] (oral 10 mg × 4 times (d7-10)) is 10 mg × 4 times (IR 89%)*.
As for `Cc1c(/C=C/CN2CCN(c3cc(F)cc(F)c3)CC2)cnn1-c1cc(NCCO)nc(N)n1.Cl` [Example 11, 1-[1-[2-Amino-6-(2-hydroxyethyl)amino-4-pyrimidinyl]-5-methyl-4-pyrazolyl]-3-[4-(3,5-difluorophenyl)-1-piperazinyl]-1-trans-propene], the GI50 in series [1] was 2.49 ng/mL.
On the same count and under the same terms, the value for `Cc1c(/C=C/CN2CCN(c3cc(F)cc(F)c3)CC2)cnn1-c1nc(N)cc(N2CC(O)C2)n1.Cl` [Example 21, 1-[1-[4-Amino-6-(3-hydroxy-1-azetidinyl)-2-pyrimidinyl]-5-methyl-4-pyrazolyl]-3-[4-(3,5-difluorophenyl)-1-piperazinyl]-1-trans-propene hydrochloride] was 3.39 ng/mL.
